This assay has as its system SARS-CoV-2(delta variant). Briefly: microbe, parasite or virus in culture. It counts as cell-based.
Where [1] appears, read: Severe acute respiratory syndrome coronavirus 2, Vero C1008, read-out: IC50.
The mark [2] stands for this setting: Severe acute respiratory syndrome coronavirus 2, Vero C1008, read-out: IC90.
Setting [3] is: Severe acute respiratory syndrome coronavirus 2, Vero C1008.

Counter-ions that a name gives are not always drawn. Like-named read-outs stand apart in the source and are kept apart here. A value given as a limit tells only on which side of the number the result lay.

Broadly, the IC50 is the midpoint of a concentration-inhibition curve. One may read the IC90 as the concentration needed for an effect of 90%. Regarding `Cc1ccc(Nc2nc(N3CCOCC3)nc(N3CCOCC3)n2)cc1C` [VIRADEM-10884, (3,4-dimethylphenyl)-(4,6-dimorpholin-4-yl-[1,3,5]triazin-2-yl)-amine], the IC50 under setting [1] came out at 0.389 µM. Besides, the concentration for an effect of 90% (IC90) under setting [2] came out at 0.477 µM.

Turning to `Cc1ccc(Nc2nc(Nc3ccc(C)c(C)c3)nc(N3CCOCC3)n2)cc1` [VIRADEM-11141], under setting [1], the half-inhibitory concentration (IC50) was 0.125 µM. In addition, under setting [2], the IC90 was determined as 0.15 µM.

For `CCOC(=O)c1ccc(Nc2nc(Nc3ccc(F)cc3)nc(N3CCOCC3)n2)cc1` [VIRADEM-11660, 4-[4-(4-Fluorophenylamino)-6-morpholin-4-yl-[1,3,5]triazin-2-ylamino]benzoic acid ethyl ester], the IC50 under setting [1] stood at 1.86 µM. Besides, the IC90 under setting [2] was more than 3 µM.

Consider `Cc1cccc(N2C(N3CCOCC3)=NC(N)=NC2Nc2ccc(Cl)cc2)c1` (stereo not shown) [VIRADEM-11680, N-(4-Chlorophenyl)-6-morpholin-4-yl-N^1-m-tolyl-[1,3,5]triazine-2,4-diamine hydrochloride], for which the IC50 under setting [1] amounted to 0.428 µM. Moreover, the IC90 under setting [2] is 0.521 µM.

`Cc1cccc(N2C(N3CCOCC3)=NC(N)=NC2Nc2cccc(Cl)c2)c1` (stereo not shown) [VIRADEM-11781, N-(3-Chlorophenyl)-6-morpholin-4-yl-N^1-m-tolyl-[1,3,5]triazine-2,4-diamine hydrochloride]: the 50% inhibitory concentration (IC50) under setting [1] is 1.28 µM. Moreover, the concentration for an effect of 90% (IC90) under setting [2] came out at 1.37 µM.

Regarding `Cc1ccc(N2C(N3CCOCC3)=NC(N)=NC2Nc2cccc(F)c2)cc1` (stereo not shown) [VIRADEM-11785, N-(3-Fluorophenyl)-6-morpholin-4-yl-N^1-p-tolyl-[1,3,5]triazine-2,4-diamine hydrochloride], under setting [1], the IC50 was 0.559 µM. Moreover, under setting [2], the concentration for an effect of 90% (IC90) is 0.69 µM.

On to `Cc1cccc(N2C(N3CCOCC3)=NC(N)=NC2Nc2cccc(F)c2)c1` (stereo not shown) [VIRADEM-11786, N-(3-Fluorophenyl)-6-morpholin-4-yl-N^1-m-tolyl-[1,3,5]triazine-2,4-diamine hydrochloride], for which the 50% inhibitory concentration (IC50) under setting [1] was found to be 0.371 µM. Further, the 90% effect concentration (IC90) under setting [2] is 0.396 µM.

For `Cc1cccc(N2C(N3CCOCC3)=NC(N)=NC2Nc2ccc(F)cc2)c1` (stereo not shown) [VIRADEM-11787, N-(4-Fluorophenyl)-6-morpholin-4-yl-N^1-m-tolyl-[1,3,5]triazine-2,4-diamine hydrochloride], under setting [1], the IC50 is 0.404 µM. Moreover, the 90% effect concentration (IC90) under setting [2] is 0.446 µM.

For `CCOc1ccc(NC2N=C(N)N=C(N3CCOCC3)N2c2cccc(C)c2)cc1` (stereo not shown) [VIRADEM-11794, N-(4-Ethoxyphenyl)-6-morpholin-4-yl-N^1-m-tolyl-[1,3,5]triazine-2,4-diamine hydrochloride], the concentration for half-maximal inhibition (IC50) under setting [1] turned out to be 0.545 µM. For the same compound, the IC90 under setting [2] was found to be 0.855 µM.

With `CC(=O)Nc1ccc(Nc2nc(Nc3ccc(Cl)cc3)nc(N3CCOCC3)n2)cc1` [VIRADEM-11847, N-{4-[4-(4-Chlorophenylamino)-6-morpholin-4-yl-[1,3,5]triazin-2-ylamino]-phenyl}-acetamide], under setting [1], the IC50 was found to be 0.036 µM. Further, the IC90 under setting [2] was determined as 0.046 µM.

For the compound `CC(=O)c1cccc(Nc2nc(Nc3ccc(Cl)cc3)nc(N3CCOCC3)n2)c1` [VIRADEM-11882, 1-{3-[4-(4-chlorophenylamino)-6-morpholin-4-yl-[1,3,5]triazin-2-ylamino]-phenyl}-ethanone], the IC50 under setting [1] came to 0.47 µM. The IC90 under setting [2] was found to be 0.635 µM.

As for `CCOC(=O)c1ccc(Nc2nc(Nc3ccc(C)c(C)c3)nc(N3CCOCC3)n2)cc1` [VIRADEM-11913, 4-[4-(3,4-Dimethylphenylamino)-6-morpholin-4-yl-[1,3,5]-2-ylamino]-benzoic acid ethyl ester], the half-maximal inhibitory concentration (IC50) (read-out: IC50) worked out at 0.245 µM. The IC90 (read-out: IC90) was determined as 0.331 µM.

For `Cc1ccc(Nc2nc(Nc3cccc(C(F)(F)F)c3)nc(N3CCOCC3)n2)cc1C` [VIRADEM-11914, N-(3,4-Dimethylphenyl)-6-morpholin-4-yl-N^1-(3-trifluoromethylphenyl)-[1,3,5]triazine-2,4-diamine], under setting [1], the IC50 came to 0.382 µM. Also, the IC90 under setting [2] was 0.437 µM.

With `CCOC(=O)c1ccc(Nc2nc(Nc3ccc(C)cc3)nc(N3CCOCC3)n2)cc1` [VIRADEM-11916, 4-(4-Morpholin-4-yl-6-p-tolylamino[1,3,5]-2-ylamino)-benzoic acid ethyl ester], the IC50 (read-out: IC50) was 0.559 µM. In addition, for the setting “read-out: IC90”, the 90% effect concentration (IC90) turned out to be 0.707 µM.

In the case of `CC(=O)Nc1ccc(Nc2nc(Nc3ccc(C)c(C)c3)nc(N3CCOCC3)n2)cc1` [VIRADEM-11918, N-{4-[4-(3,4-Dimethylphenylamino)-6-morpholin-4-yl-[1,3,5]triazin-2-ylamino]phenyl}-acetamide], under setting [1], the half-maximal inhibitory concentration (IC50) came out at 0.041 µM. Besides, the concentration for an effect of 90% (IC90) under setting [2] stood at 0.06 µM.

As to `CCOC(=O)c1ccc(Nc2nc(Nc3cc(C)cc(C)c3)nc(N3CCOCC3)n2)cc1` [VIRADEM-11934, 4-[4-(3,5-Dimethylphenylamino)-6-morpholin-4-yl-[1,3,5]-2-ylamino]-benzoic acid ethyl ester], the IC50 (read-out: IC50) was 1.02 µM. Besides, where the note is “read-out: IC90”, the 90% effect concentration (IC90) turned out to be 1.24 µM.

As for `CC(=O)c1cccc(Nc2nc(Nc3ccccc3)nc(N3CCOCC3)n2)c1` [VIRADEM-12125, 1-[3-(4-Morpholin-4-yl-6-phenylamino-[1,3,5]triazin-2-ylamino)-phenyl]-ethanone hydrochloride], under setting [1], the concentration for half-maximal inhibition (IC50) is 0.584 µM. Moreover, the IC90 under setting [2] stood at 1.37 µM.

Take `Cc1cccc(Nc2nc(Nc3ccc(C(C)C)cc3)nc(N3CCOCC3)n2)c1` [VIRADEM-12251, N-(4-Isoproylphenyl)-6-morpholin-4-yl-N^1-m-tolyl-[1,3,5]triazine-2,4-diamine hydrochloride]: the IC50 (read-out: IC50) worked out at 0.951 µM. Moreover, the IC90 (read-out: IC90) was 1.17 µM.

Take `COc1cccc(NC2N=C(N)N=C(N3CCOCC3)N2c2ccccc2)c1` (stereo not shown) [VIRADEM-12252, N-(3-Methoxyphenyl)-6-morpholin-4-yl-N^1-phenyl-[1,3,5]triazine-2,4-diamine hydrochloride]: the 50% inhibitory concentration (IC50) under setting [1] was found to be 0.357 µM. Moreover, under setting [2], the 90% effect concentration (IC90) came out at 0.425 µM.

As for `COC(=O)c1ccc(Nc2nc(Nc3cccc(OC)c3)nc(N3CCOCC3)n2)cc1` [VIRADEM-12329, 4-[4-(3-Methoxyphenylamino)-6-morpholin-4-yl-[1,3,5]triazin-2-ylamino]-benzoic acid methyl ester], the IC50 under setting [1] was 0.368 µM. For the same compound, the IC90 under setting [2] came to 0.465 µM.

For the compound `Cc1ccc(Nc2nc(N3CCCCCC3)nc(N3CCOCC3)n2)cc1` [VIRADEM-15229, (4-Azepan-1-yl-6-morpholin-4-yl-[1,3,5]triazin-2-yl)-p-tolyl-amine], the IC50 under setting [1] came to 1.03 µM. Also, the 90% effect concentration (IC90) under setting [2] amounted to 1.19 µM.

Turning to `Cc1ccc(Nc2nc(N3CCOCC3)nc(N3CCCc4ccccc43)n2)cc1C` [VIRADEM-15278, [4-(3,4-Dihydro-2-H-quinolin-1-yl)-6-morpholin-4-yl-[1,3,5]triazin-2-yl]-(3,4-dimethylphenyl)-amine], the IC50 (read-out: IC50) turned out to be 0.194 µM. Moreover, where the note is “read-out: IC90”, the IC90 was determined as 0.388 µM.

As to `COc1ccc(Nc2nc(Nc3cccc(C)c3)nc(N3CCOCC3)n2)cc1` [hydrochloride], under setting [3], the IC50 stood at 0.338 µM and the IC90 was 0.356 µM.

Values taken from patent US20260076973A1 (priority 2023, published 2026).
